Reference: patent US20110190247A1, “CYCLOPROPYLCHROMENE DERIVATIVES AS MODULATORS OF THE ALPHA-2C RECEPTOR” (Schering Corporation, priority 2008, published 2011)

Tests used:
α2C receptor [1] = target: T1, α2C receptor (Homo sapiens, UniProt P18825); assay: GTPγS assay, efficacy agonist activity (Emax) at α2C; type: biochemical; conditions: for evaluated as agonist of the α2C receptor subtype: by definition: efficacy at α2C 30% Emax (GTPγS assay), functionally selective if efficacy at α2A ≦35% Emax; for evaluated as antagonist of the α2C receptor subtype: by definition: efficacy at α2C <30% Emax (GTPγS assay) and Ki <500 nM
T1 sequence (P18825 1-462): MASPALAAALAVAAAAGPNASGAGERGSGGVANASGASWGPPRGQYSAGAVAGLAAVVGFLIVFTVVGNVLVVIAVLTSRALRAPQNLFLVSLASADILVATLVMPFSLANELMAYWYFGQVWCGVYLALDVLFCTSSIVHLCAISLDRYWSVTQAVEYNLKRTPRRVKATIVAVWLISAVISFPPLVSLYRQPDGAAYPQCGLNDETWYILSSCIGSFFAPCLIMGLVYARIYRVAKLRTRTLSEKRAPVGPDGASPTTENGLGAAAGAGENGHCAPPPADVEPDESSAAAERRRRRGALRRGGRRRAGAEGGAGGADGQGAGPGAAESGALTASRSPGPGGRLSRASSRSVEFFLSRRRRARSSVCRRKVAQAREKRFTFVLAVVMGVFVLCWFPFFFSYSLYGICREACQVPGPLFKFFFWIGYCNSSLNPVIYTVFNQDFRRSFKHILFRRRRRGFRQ
Description: Efficacy agonist activity values (Emax, GTPγS assay) for α2A and α2C were determined by following the general procedure detailed by Umland et. al (“Receptor reserve analysis of the human α2c-adrenoceptor using [^35S]GTPγS and cAMP functional assays” European Journal of Pharmacology 2001, 411, 211-221). For the purposes of the present invention, a compound is defined to be a specific or at least functionally selective agonist of the α2C receptor subtype if the compound's efficacy at the α2C receptor is […] (GTPγS assay) and its efficacy at the α2A receptor is ≦35% Emax (GTPγS assay). Additionally, for the purposes of this invention, a compound is defined to be an antagonist of the α2C receptor subtype if the compound's efficacy at the α2C receptor is <30% Emax (GTPγS assay) and the Ki at the α2C receptor subtype was <500 nM, preferentially <200 nM, and most preferentially <20 nM.

α2C receptor [2] = target: T1, α2C receptor; assay: binding inhibition at the α2C receptor (Ki); conditions: compounds classed as α2C antagonists; read-out: Ki at the α2C receptor subtype

| Structure (SMILES) | evaluated as agonist of the α2C receptor subtype (α2C receptor [1]) | evaluated as antagonist of the α2C receptor subtype (α2C receptor [1]) | Ki (α2C receptor [2]) [nM] |
| --- | --- | --- | --- |
| Cn1nccc1-c1ccc2c(c1)[C@@H]1[C@H](CO2)[C@H]1c1c[nH]cn1 (racemic) [(±)-2A] | active or functionally selective agonists | – | – |
| Cc1n[nH]c(C)c1-c1ccc2c(c1)[C@@H]1[C@H](CO2)[C@H]1c1c[nH]cn1 (racemic) [(±)-2C] | active or functionally selective agonists | – | – |
| c1ncc(-c2ccc3c(c2)[C@@H]2[C@H](CO3)[C@H]2c2c[nH]cn2)cn1 (racemic) [(±)-2] | – | antagonist | < 200 |
| Cc1noc(C)c1-c1ccc2c(c1)[C@@H]1[C@H](CO2)[C@H]1c1c[nH]cn1 (racemic) [(±)-2d] | – | antagonist | < 200 |
| c1nc([C@@H]2[C@H]3COc4ccc(-c5cn[nH]c5)cc4[C@H]32)c[nH]1 (racemic) [(±)-2e] | – | antagonist | < 200 |
| Cc1nn(C)c(C)c1-c1ccc2c(c1)[C@@H]1[C@H](CO2)[C@H]1c1c[nH]cn1 (racemic) [(±)-2f] | – | antagonist | < 200 |
| CCN(C(=O)NC)c1ccc2c(c1)[C@@H]1[C@H](CO2)[C@H]1c1c[nH]cn1 (racemic) [(±)-3] | active or functionally selective agonists | – | – |
| CCN(C(=O)OC)c1ccc2c(c1)[C@@H]1[C@H](CO2)[C@H]1c1c[nH]cn1 (racemic) [(±)-4] | active or functionally selective agonists | – | – |
| COCC(=O)N(C)c1ccc2c(c1)[C@@H]1[C@H](CO2)[C@H]1c1c[nH]cn1 (racemic) [(±)-5] | active or functionally selective agonists | – | – |
| CNc1ncncc1-c1ccc2c(c1)[C@@H]1[C@H](CO2)[C@H]1c1c[nH]cn1 (racemic) [(±)-7] | – | antagonist | < 200 |
| CNc1ncnc(C)c1-c1ccc2c(c1)[C@@H]1[C@H](CO2)[C@H]1c1c[nH]cn1 (racemic) [(±)-8] | active or functionally selective agonists | – | – |
| CCN(C(=O)COC)c1ccc2c(c1)[C@@H]1[C@H](CO2)[C@H]1c1c[nH]cn1 (racemic) [(±)-100] | – | antagonist | < 200 |
| CNC(=O)N(C)c1ccc2c(c1)[C@@H]1[C@H](CO2)[C@H]1c1c[nH]cn1 (racemic) [(±)-101] | active or functionally selective agonists | – | – |
| COC(=O)N(C)c1ccc2c(c1)[C@@H]1[C@H](CO2)[C@H]1c1c[nH]cn1 (racemic) [(±)-102] | active or functionally selective agonists | – | – |
